Experiment [1] deals with Mitogen-activated protein kinase kinase kinase kinase 5 (Homo sapiens, UniProt Q9Y4K4).
The target of experiment [2] is Mitogen-activated protein kinase 14 (Homo sapiens, UniProt Q16539).
For experiment [3], the target named is Serine/threonine-protein kinase MRCK beta (Homo sapiens, UniProt Q9Y5S2).
Experiment [4] deals with T1, Tyrosine-protein kinase Tec (Homo sapiens, UniProt P42680).
T1 sequence (P42680 whole entry): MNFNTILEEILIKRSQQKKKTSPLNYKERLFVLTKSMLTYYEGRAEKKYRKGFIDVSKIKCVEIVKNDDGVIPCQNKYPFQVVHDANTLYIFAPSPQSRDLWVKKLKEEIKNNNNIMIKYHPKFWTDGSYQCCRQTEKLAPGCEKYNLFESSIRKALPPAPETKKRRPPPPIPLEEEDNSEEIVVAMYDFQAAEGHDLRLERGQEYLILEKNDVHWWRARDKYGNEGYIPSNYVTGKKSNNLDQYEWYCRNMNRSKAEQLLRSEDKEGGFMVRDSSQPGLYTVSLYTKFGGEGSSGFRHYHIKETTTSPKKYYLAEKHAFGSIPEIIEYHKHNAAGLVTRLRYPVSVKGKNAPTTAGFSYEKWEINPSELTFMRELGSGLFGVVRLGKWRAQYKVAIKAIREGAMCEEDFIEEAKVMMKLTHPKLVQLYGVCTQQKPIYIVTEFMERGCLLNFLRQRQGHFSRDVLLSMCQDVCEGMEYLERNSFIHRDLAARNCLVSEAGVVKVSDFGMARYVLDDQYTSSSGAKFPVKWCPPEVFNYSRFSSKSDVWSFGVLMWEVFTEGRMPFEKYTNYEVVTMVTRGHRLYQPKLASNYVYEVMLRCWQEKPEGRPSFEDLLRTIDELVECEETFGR

In a further experiment the target is T2, Ephrin type-A receptor 1 (Homo sapiens, UniProt P21709).
T2 sequence (P21709 whole entry): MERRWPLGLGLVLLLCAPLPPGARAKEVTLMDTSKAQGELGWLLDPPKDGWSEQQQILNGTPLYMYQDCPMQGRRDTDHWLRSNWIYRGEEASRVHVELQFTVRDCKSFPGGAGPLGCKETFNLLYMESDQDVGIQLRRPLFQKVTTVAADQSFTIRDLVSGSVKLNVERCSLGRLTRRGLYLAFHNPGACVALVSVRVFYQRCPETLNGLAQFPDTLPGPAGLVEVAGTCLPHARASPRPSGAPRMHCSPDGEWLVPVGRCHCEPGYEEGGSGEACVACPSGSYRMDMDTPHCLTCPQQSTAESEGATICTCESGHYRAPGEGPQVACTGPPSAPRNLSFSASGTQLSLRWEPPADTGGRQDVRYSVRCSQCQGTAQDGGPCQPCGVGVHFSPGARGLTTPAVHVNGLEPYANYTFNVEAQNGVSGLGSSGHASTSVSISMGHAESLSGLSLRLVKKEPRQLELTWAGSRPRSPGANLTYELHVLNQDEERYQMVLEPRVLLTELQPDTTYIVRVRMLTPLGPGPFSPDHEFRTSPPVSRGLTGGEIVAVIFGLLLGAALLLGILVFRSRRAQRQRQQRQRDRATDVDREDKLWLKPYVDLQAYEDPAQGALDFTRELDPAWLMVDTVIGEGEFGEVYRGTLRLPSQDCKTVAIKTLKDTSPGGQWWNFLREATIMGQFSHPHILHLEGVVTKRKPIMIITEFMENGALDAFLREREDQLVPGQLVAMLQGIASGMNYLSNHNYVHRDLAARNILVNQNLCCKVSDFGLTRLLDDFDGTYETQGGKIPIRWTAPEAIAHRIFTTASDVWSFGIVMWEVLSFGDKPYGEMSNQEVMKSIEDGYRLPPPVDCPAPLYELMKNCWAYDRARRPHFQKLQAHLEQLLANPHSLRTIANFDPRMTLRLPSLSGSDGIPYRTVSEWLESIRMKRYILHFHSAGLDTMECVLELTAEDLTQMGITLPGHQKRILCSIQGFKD

In experiment [5] the target is T3, Tyrosine--tRNA ligase, cytoplasmic (Homo sapiens, UniProt P54577).
T3 sequence (P54577 whole entry): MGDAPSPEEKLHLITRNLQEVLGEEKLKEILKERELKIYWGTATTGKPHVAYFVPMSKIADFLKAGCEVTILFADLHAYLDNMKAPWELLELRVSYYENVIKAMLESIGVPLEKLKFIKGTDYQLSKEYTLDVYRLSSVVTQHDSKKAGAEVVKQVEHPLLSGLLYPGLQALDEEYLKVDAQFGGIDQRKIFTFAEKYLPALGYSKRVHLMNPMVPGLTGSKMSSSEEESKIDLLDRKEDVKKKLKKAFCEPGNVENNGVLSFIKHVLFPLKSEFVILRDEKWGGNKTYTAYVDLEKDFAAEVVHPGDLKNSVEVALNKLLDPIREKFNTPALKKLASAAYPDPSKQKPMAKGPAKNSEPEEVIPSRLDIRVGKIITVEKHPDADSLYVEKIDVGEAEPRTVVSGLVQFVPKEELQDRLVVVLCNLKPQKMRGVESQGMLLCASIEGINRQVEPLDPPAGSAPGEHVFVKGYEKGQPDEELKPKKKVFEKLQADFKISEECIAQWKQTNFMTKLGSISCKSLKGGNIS

Experiment [6] deals with T4, NUAK family SNF1-like kinase 2 (Homo sapiens, UniProt Q9H093).
T4 sequence (Q9H093 whole entry): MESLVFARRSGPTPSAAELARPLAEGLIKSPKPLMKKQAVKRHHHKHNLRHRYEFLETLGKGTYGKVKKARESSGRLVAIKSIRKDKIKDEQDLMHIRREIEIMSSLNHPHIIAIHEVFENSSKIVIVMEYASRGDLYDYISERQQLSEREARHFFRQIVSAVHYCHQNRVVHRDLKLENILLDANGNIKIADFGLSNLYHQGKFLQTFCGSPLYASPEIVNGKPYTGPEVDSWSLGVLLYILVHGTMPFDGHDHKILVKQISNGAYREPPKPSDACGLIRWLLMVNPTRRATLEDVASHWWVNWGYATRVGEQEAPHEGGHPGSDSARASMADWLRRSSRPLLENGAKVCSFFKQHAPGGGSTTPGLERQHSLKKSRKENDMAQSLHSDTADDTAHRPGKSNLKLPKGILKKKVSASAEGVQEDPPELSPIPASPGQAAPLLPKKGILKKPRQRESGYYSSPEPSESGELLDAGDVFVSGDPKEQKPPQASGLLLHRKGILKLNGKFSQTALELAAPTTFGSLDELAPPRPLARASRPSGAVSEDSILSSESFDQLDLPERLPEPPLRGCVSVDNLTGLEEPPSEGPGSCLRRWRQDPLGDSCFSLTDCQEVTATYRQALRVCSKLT

The results in this text go back to ChEMBL document CHEMBL3991601, “The target landscape of clinical kinase drugs” (Science, 2017).

Calls of active or inactive are those of the source.
Note: in the data inactive means no Kd found up to 30 µM.

Chain of Serine/threonine-protein kinase MRCK beta (Q9Y5S2 whole entry): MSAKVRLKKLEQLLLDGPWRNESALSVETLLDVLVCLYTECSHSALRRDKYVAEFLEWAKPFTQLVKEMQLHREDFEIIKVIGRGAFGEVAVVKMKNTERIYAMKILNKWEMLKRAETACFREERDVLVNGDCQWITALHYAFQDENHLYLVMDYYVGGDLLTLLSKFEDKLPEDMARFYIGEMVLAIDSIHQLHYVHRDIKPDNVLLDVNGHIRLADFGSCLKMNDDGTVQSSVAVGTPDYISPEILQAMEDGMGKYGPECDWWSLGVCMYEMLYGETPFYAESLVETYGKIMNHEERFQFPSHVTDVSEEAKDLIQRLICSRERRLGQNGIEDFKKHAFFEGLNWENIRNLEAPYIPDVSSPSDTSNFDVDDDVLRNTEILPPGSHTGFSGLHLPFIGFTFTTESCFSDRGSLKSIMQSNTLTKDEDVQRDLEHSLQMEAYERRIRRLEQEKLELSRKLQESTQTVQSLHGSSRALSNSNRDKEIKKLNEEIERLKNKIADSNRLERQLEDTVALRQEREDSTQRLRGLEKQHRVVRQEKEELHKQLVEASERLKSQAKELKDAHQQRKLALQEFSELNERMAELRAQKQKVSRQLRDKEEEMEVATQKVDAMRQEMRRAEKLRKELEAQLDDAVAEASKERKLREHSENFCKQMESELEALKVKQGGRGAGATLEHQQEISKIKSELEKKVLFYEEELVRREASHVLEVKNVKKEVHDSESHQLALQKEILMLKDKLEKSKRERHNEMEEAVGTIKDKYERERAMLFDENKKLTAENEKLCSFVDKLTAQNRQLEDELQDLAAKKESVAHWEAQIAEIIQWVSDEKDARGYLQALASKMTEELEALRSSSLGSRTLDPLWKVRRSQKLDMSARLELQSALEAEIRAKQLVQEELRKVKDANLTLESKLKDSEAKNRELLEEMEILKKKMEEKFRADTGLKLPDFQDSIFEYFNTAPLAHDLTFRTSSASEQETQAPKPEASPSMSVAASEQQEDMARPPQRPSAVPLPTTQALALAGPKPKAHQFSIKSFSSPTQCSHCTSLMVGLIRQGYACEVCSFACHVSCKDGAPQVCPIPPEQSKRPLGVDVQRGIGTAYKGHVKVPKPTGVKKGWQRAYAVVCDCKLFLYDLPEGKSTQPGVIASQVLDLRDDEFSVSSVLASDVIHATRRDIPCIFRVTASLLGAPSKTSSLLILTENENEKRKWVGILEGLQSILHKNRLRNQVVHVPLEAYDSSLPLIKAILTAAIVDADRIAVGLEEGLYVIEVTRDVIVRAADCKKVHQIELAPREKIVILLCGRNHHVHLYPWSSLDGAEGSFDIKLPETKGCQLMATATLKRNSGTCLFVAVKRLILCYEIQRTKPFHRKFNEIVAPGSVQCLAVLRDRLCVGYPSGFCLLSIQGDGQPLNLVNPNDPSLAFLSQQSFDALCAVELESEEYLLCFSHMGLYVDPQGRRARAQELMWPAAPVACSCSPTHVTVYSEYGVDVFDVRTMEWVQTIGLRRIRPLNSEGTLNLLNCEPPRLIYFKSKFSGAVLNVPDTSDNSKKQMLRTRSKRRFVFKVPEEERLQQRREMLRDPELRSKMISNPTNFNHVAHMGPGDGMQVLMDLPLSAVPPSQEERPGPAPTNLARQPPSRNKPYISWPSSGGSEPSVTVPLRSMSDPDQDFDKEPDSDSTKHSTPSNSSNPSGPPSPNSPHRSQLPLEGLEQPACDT
Chain of Mitogen-activated protein kinase 14 (Q16539 whole entry): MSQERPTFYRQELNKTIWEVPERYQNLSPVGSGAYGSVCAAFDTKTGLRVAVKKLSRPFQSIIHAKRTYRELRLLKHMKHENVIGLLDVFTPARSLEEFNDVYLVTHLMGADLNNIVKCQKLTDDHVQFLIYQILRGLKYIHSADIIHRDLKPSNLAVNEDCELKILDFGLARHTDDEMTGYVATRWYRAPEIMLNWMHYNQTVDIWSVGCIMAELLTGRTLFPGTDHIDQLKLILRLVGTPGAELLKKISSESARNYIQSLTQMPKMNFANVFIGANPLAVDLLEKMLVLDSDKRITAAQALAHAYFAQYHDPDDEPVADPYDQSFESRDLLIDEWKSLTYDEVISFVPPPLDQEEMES
Chain of Mitogen-activated protein kinase kinase kinase kinase 5 (Q9Y4K4 whole entry): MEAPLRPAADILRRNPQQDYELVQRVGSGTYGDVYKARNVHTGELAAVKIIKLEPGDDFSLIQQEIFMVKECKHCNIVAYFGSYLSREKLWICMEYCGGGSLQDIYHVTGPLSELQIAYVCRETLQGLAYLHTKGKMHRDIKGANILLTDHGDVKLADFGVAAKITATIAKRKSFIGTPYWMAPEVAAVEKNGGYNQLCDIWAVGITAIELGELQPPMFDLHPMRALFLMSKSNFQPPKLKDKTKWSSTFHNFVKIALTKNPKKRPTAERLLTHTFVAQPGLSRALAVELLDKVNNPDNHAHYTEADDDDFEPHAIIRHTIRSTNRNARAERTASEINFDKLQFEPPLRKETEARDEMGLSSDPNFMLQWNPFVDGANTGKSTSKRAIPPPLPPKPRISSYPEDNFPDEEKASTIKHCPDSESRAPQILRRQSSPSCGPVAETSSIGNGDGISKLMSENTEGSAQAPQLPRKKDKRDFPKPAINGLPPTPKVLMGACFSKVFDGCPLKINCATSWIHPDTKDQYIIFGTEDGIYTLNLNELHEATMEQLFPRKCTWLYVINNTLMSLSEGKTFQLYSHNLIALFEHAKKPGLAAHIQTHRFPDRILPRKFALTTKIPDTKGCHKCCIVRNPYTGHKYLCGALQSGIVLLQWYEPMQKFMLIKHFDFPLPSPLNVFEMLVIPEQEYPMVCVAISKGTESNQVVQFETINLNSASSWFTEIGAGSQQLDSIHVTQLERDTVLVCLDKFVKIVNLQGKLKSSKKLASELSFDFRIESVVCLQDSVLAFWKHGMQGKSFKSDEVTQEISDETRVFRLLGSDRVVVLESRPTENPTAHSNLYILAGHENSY

By Kd is commonly meant a measure of binding affinity in units of concentration. As to `CCNC(=O)C#Cc1ccc2c(c1)NC(=O)/C2=C(\Nc1ccc(CN(C)C)cc1)c1ccccc1`, the Kd was 1.36 µM (active) in experiment [1]; > 30 µM (inactive) in experiment [2]; > 30 µM (inactive) in experiment [3]; 0.885 µM (active) in experiment [4]; > 30 µM (inactive) at Ephrin type-A receptor 1; > 30 µM (inactive) in experiment [5].
For `Cc1csc(-c2nnc(Nc3ccc(Oc4ncccc4-c4ccnc(N)n4)cc3)c3ccccc23)c1` [AMG-900], the Kd in experiment [1] was 1.71 µM (active); in experiment [2], 0.735 µM (active); in experiment [3], > 30 µM (inactive); in experiment [4], > 30 µM (inactive); in experiment [6], > 30 µM (inactive); in experiment [5], > 30 µM (inactive).
Turning to `O=C(Nc1c[nH]nc1-c1nc2cc(CN3CCOCC3)ccc2[nH]1)NC1CC1` [AT-9283], the Kd in experiment [2], in experiment [3], in experiment [6] and in experiment [5] was > 30 µM (inactive) in each case.
For the molecule `CNC(=O)c1ccccc1Sc1ccc2c(/C=C/c3ccccn3)n[nH]c2c1` [AXITINIB], the Kd in experiment [5] is > 30 µM (inactive).
Consider `NC(=O)Nc1cc(-c2cccc(F)c2)sc1C(=O)N[C@H]1CCCNC1` [AZD-7762], for which the Kd was 0.197 µM (active) in experiment [1]; > 30 µM (inactive) in experiment [2]; > 30 µM (inactive) in experiment [3]; 2.61 µM (active) in experiment [4]; > 30 µM (inactive) in experiment [5].
`Cc1cc(C(=O)NOCCO)c(Nc2ccc(I)cc2F)n(C)c1=O` [AZD-8330]: the Kd in experiment [1], in experiment [2], in experiment [3], in experiment [4], in experiment [6] and in experiment [5] was > 30 µM (inactive) each time.
On to `COc1c(OCCCN2CCOCC2)ccc2c1N=C(NC(=O)c1cnc(N)nc1)N1CCN=C21` [COPANLISIB], for which the Kd in experiment [1], in experiment [2], in experiment [3], in experiment [4], in experiment [6] and in experiment [5] was > 30 µM (inactive) in each case.
Turning to `Cn1cc(C2=C(c3cn(C4CCN(Cc5ccccn5)CC4)c4ccccc34)C(=O)NC2=O)c2ccccc21` [ENZASTAURIN], the Kd in experiment [5] was > 30 µM (inactive).
Take `Cc1cccc(-c2nn3c(c2-c2ccnc4ccc(C(N)=O)cc24)CCC3)n1` [GALUNISERTIB]: the Kd in experiment [1], in experiment [2], in experiment [3], in experiment [4], in experiment [6] and in experiment [5] was > 30 µM (inactive) throughout.
In the case of `C[C@@H](Oc1cc(-n2cnc3ccc(CN4CCN(C)CC4)cc32)sc1C(N)=O)c1ccccc1C(F)(F)F` [GSK-461364], the Kd in experiment [5] is > 30 µM (inactive).
Consider `COc1ncc(-c2ccc3nccc(-c4ccnnc4)c3c2)cc1NS(=O)(=O)c1ccc(F)cc1F` [OMIPALISIB], for which the Kd in experiment [1], in experiment [2], in experiment [3], in experiment [4], in experiment [6] and in experiment [5] was > 30 µM (inactive) each time.
Turning to `Cc1[nH]c(/C=C2\C(=O)Nc3ccccc32)c(C)c1CCC(=O)O` [ORANTINIB], the Kd (in experiment [2]; in experiment [3]; in experiment [4]; on Ephrin type-A receptor 1; in experiment [5]) was > 30 µM (inactive) throughout.
Turning to `CNC(=O)c1cc(Oc2ccc(NC(=O)Nc3cc(C(C)(C)C)nn3-c3ccc4ncccc4c3)c(F)c2)ccn1` [REBASTINIB], the Kd was 2.76 µM (active) in experiment [2]; > 30 µM (inactive) in experiment [3]; > 30 µM (inactive) in experiment [4]; > 30 µM (inactive) in experiment [6]; > 30 µM (inactive) in experiment [5].
For the molecule `O=C(NOCCO)c1cc(CN2OCCCC2=O)c(F)c(F)c1Nc1ccc(I)cc1F` [RO-4987655], the Kd in experiment [5] was > 30 µM (inactive).
`N#CC[C@H](C1CCCC1)n1cc(-c2ncnc3[nH]ccc23)cn1` [RUXOLITINIB]: the Kd in experiment [5] was > 30 µM (inactive).
In the case of `CN1CCN(CCOc2cc(OC3CCOCC3)c3c(Nc4c(Cl)ccc5c4OCO5)ncnc3c2)CC1` [SARACATINIB], the Kd was 27.1 µM in experiment [1]; > 30 µM (inactive) in experiment [2]; > 30 µM (inactive) in experiment [3]; > 30 µM (inactive) in experiment [4]; > 30 µM (inactive) in experiment [6]; > 30 µM (inactive) in experiment [5].
On to `CO[C@H]1C[C@@H]2CC[C@@H](C)[C@@](O)(O2)C(=O)C(=O)N2CCCC[C@H]2C(=O)O[C@H]([C@H](C)C[C@@H]2CC[C@@H](O)[C@H](OC)C2)CC(=O)[C@H](C)/C=C(\C)[C@@H](O)[C@@H](OC)C(=O)[C@H](C)C[C@H](C)/C=C/C=C/C=C/1C` [SIROLIMUS], for which the Kd (in experiment [1]; in experiment [2]; in experiment [3]; in experiment [4]; at Ephrin type-A receptor 1; in experiment [5]) was > 30 µM (inactive) in each case.
As for `O=C1NC(=O)[C@@H](c2cn3c4c(cccc24)CCC3)[C@@H]1c1c[nH]c2ccccc12` [TIVANTINIB], the Kd in experiment [1], in experiment [2], in experiment [3], in experiment [4] and in experiment [5] was > 30 µM (inactive) throughout.
